# Patent US20080194656A1, “Benzotriazole Derivatives as Cannabinoid Receptor Antagonists” (priority 2005, published 2008)
# How the values were obtained:
# [1] = target: T1, Cb-1 receptor stably expressed in CHO-K1 cells (Homo sapiens, UniProt P21554); assay: Cyclic AMP accumulation (HTRF cAMP assay, antagonism of CP55940); type: cell-based; conditions: forskolin and CP55940 (agonist), 30 min at 25° C.; for IC50: read-out: Example C2 cAMP (antagonism) pIC50 (converted)
# T1 construct: host or cells: CHO-K1
# Experimental: (§1) Human Cb-1 transfected CHO-K1 cells (Euroscreen; Cat # ES-110-C; hCB1-D1; accession n′ Swissprot X54937) were maintained as described previously (Felder et al., 1995 & 1998). For membrane preparation, cells were cultured in DMEM/Ham's F12 medium containing 10% (v/v) heat inactivated FCS, 100 U/ml penicillin and 100 μg/ml streptomycin, 100 μg/ml pyruvate and 292 μg/ml L-glutamine under 5% CO2 at 37° C. in roller bottles, with medium changed 3 times a week. When 90% confluent, cells collected by trypsinisation and re-seeded at 1:10 or 1:20 dilutions to fresh roller bottles. For measurement of cAMP formation, cells were cultured to 90% confluency in Falcon T175 flasks.
# Using the commercially available dynamic homogenous time-resolved fluorescence cAMP assay, the cAMP measurements on CHO-K1 cells that stably express the Cb-1 receptor were performed. Cells were detached from flasks using 3 ml EDTA (0.04% (w/v) in PBS) and resuspended in PBS (without Ca^2+ and Mg^2+) and centrifuged at 500×g for 5 min. Cell pellet was resuspended in stimulation buffer (HBSS medium containing 1 mM IBMX, 5 mM Hepes, 10 mM MgCl2 and 0.1% (w/v) BSA) and were dispensed into a black 96 well plate at a cell density of 20000 cells per well. After 30 min at 25° C., an equal volume of stimulation buffer containing forskolin and CP55940 (agonist) and/or a Cb-1 antagonist was added to the cells. After 30 min incubation at 25° C., cAMP detection was performed by addition of an equal volume of cAMP-XL665 and anti-cAMP-cryptate conjugates. The plate was incubated for a further 60 min at 25° C. and then measured with Discovery (PerkinElmer N.V./S.A. Belgium).
# [2] = target: T2, Human Cb-1 receptor (transfected CHO-K1 cell membranes) (Homo sapiens, UniProt P21554); assay: Cb-1 competition receptor binding in cell membranes ([3H]CP55,940 displacement); conditions: 3H-CP55,940 0.5 nM, 1 hour at 25° C.; for IC50: read-out: Example C1 Binding pIC50 (converted)
# T2 construct: host or cells: CHO-K1
# Experimental: as §1
# Prior to membrane preparation, confluent cells were treated with 5 mM butyrate for 24 hours. Medium was aspirated and cells were scraped from bottles in 50 ml homogenization buffer consisting of 15 mM Tris-HCl, pH 7.4 containing 2 mM MgCl2, 0.3 mM EDTA and 1 mM EGTA. The cells were then centrifuged for 10 minutes at 1700×g at 4° C. and homogenized in 20 ml same buffer with an Ultra Turrax. The crude membrane pellet was collected by two consecutive centrifugation steps at 20,000×g for 10 min and for 20 min at 25,000×g respectively, separated by a washing/homogenization step in 10 ml homogenization buffer. Final cell pellets were resuspended in a volume of 6 ml/roller bottle in stock buffer consisting of 7.5 mM Tris-HCl, pH 7.4, containing 12.5 mM MgCl2, 0.3 mM EDTA, 1 mM EGTA and 250 mM sucrose. Protein content was assayed by the BioRad method (Bradford, 1976).
# Competition binding assays were performed in triplicate in a final volume of 0.5 ml containing incubation buffer (50 mM Tris-HCl, pH 7.4 containing 2.5 mM EDTA and 0.5% (w/v) BSA), 50 μl ^3H-CP55,940 (0.5 nM final), 0.4 ml transfected CHO-K1 membrane proteins (60 μg/ml) in the presence or absence of test compound. Non-specific binding determined using 1 μM CP55,940. The samples were incubated for 1 hour at 25° C., being terminated by rapid filtration on GF/C filters presoaked in 0.1% polyethylenimine, using a Unifilter-96 Harvester (PerkinElmer N.V./S.A. Belgium). Filters were washed 6 times with cold washing buffer (50 mM Tris-HCl, pH 7.4 containing 0.1% BSA), plates air-dried overnight before bound [^3H]CP55,940 was measured by liquid scintillation counting using a TopCount NXT microplate scintillation counter (Packard BioScience/ PerkinElmer N.V./S.A. Belgium). IC50 values were determined by a single-site binding equation (GraphPad Prism, San Diego, Calif., U.S.A.).
# [3] = tested on: food intake in rats and mice; assay: Feeding experiments, acute dose-response on food intake; type: in vivo; conditions: oral single dose, food intake 1 h after lights out
# Experimental: Male Sprague Dawley rats (weighing 250-300 g at the time of experiment) were obtained from Charles River (Sulzfeld, Kisslegg, Germany). Male C57Bl/6J Rj mice (weighing 25-30 g at the time of experiments) were obtained from Janvier (Le Genest-St-Isle, France). All animals had free access to water and were individually housed under 12-h light:dark cycle (lights on at 22:00 h) and at a temperature of 19-22° C. and 35-40% humidity in Techniplast IVC cages adapted to fit external food hoppers. Rats and mice were fed a standard purified diet containing 10% kcal fat (Dyets, Inc. Bethlehem, USA; or Research diets, New Brunswick, N.J., USA). All experiments were carried out in accordance with the European Communities Council Directives (86/609/EEC) and were approved by the local ethical committee.
# An acute dose-response analysis for each compound was performed. All rats and mice were randomly assigned and orally dosed with either vehicle (10% cyclodextran containing 0.9% (w/v) saline) or vehicle containing a single concentration of compound (0.16, 0.63, 2.50, 10.0, 40.0 mg/kg at 10 ml/kg) so that the average latency from time of drug administration and lights out was 45 minutes, with 6 animals per group. Food intake was measured 1, 2, 4, 6 and 24 hours after lights out.
# [4] = target: T2, Human Cb-1 receptor (transfected CHO-K1 cell membranes); assay: Cb-1 competition receptor binding in cell membranes ([3H]CP55,940 displacement); conditions: statement on the enantiomers of the racemate, no test named
# T1 sequence (P21554 whole entry): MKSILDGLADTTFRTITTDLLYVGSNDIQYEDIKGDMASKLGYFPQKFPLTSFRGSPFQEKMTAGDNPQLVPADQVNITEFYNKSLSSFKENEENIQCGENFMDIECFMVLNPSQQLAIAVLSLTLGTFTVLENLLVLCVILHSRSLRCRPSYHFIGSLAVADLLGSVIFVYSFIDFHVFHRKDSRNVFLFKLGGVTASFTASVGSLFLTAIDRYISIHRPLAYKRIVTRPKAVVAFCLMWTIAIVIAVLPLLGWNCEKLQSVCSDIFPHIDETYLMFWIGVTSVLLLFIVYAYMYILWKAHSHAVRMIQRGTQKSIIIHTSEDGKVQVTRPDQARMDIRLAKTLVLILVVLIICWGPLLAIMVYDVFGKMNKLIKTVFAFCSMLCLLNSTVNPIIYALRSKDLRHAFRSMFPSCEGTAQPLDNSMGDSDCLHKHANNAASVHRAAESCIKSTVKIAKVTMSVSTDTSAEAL
# T2 sequence (P21554 whole entry): as above
SMILES,IC50 [2] [nM],Example C1 Binding pIC50 [2],further results
"Clc1ccc(C(c2ccc3nnn(C4CCCCC4)c3c2)n2cncn2)cc1 (racemic) [Intermediate 7, 1H-Benzotriazole, 6-[(4-chlorophenyl)-1H-1,2,4-triazol-1-ylmethyl]-1-cyclohexyl-]",288,–,"IC50 [1]: 36.3 nM; ED50 ([3]; po, 1 h, read-out: Example C3 Food intake at 1 h ED50): 3.28 mg/kg"
"Clc1ccc([C@H](c2ccc3nnn(C4CCCCC4)c3c2)n2cncn2)cc1 [Compound 2, 1H-Benzotriazole, (−)-6-[(4-chlorophenyl)-1H-1,2,4-triazol-1-ylmethyl]-1-cyclohexyl-]",–,–,active as a CB1 modulator [4]: active
CC(C)CCn1nnc2ccc(C(c3ccc(Cl)cc3)n3ccnc3)cc21 (stereo not drawn) [Compound 4],933,–,IC50 [1]: 339 nM
Clc1ccc(Cn2nnc3ccc(C(c4ccc(Cl)cc4)n4ccnc4)cc32)cc1 (stereo not drawn) [Compound 5],832,–,IC50 [1]: 955 nM
Cn1nnc2ccc(C(c3ccc(Cl)cc3)c3nccs3)cc21 (stereo not drawn) [Compound 6],5370,–,–
c1ccc(C(c2ccc3nnn(C4CCCCC4)c3c2)n2ccnc2)cc1 (stereo not drawn) [Compound 9],–,6.05,Example C2 cAMP (antagonism) pIC50 [1]: 5.79
Clc1ccc(C(c2ccc3nnn(-c4ccccc4)c3c2)n2ccnc2)cc1 (stereo not drawn) [Compound 10],–,6.28,Example C2 cAMP (antagonism) pIC50 [1]: 6.38
CC(c1ccccc1)n1nnc2ccc(C(c3ccc(Cl)cc3)n3ccnc3)cc21 (stereo not drawn) [Compound 11],–,5.67,–
Clc1ccc(C(c2ccc3nnn(Cc4ccccc4)c3c2)n2ccnc2)cc1 (stereo not drawn) [Compound 13],–,5.61,–

# Now from value to compound, other results behind:
IC50 [2] [nM],Example C1 Binding pIC50 [2],SMILES,further results
8910,–,"Clc1ccc([C@H](c2ccc3nnn(C4CCCCC4)c3c2)n2cncn2)cc1 (single isomer, unassigned) [Compound 1]",Example C3 Food intake at 1 h ED50 [3]: >100 mg/kg
141,–,"Clc1ccc([C@H](c2ccc3nnn(C4CCCCC4)c3c2)n2cncn2)cc1 (single isomer, unassigned) [Compound 2, 1H-Benzotriazole, (−)-6-[(4-chlorophenyl)-1H-1,2,4-triazol-1-ylmethyl]-1-cyclohexyl-]",Example C3 Food intake at 1 h ED50 [3]: 2.69 mg/kg
–,6.69,CC(C)n1nnc2ccc(C(c3ccc(Cl)cc3)n3cncn3)cc21 (stereo not drawn) [Compound 7],Example C2 cAMP (antagonism) pIC50 [1]: 6.9
–,6.45,CCCCn1nnc2ccc(C(c3ccc(Cl)cc3)n3cncn3)cc21 (stereo not drawn) [Compound 8],Example C2 cAMP (antagonism) pIC50 [1]: 6.62
–,5.53,CC(C)n1nnc2ccc(C(c3ccc(Cl)cc3)n3ccnc3)cc21 (stereo not drawn) [Compound 12],–
